Data reported in patent US20050031600A1, “Cardiac function by mesenchymal stem cell transplantation” (Genzyme Corporation, priority 1998, published 2005).

System: mesenchymal stem cells (MSCs)
Experiment: Cardiomyogenic differentiation of cultured rat MSCs in vitro (myotube formation, immunofluorescent staining)
Assay type: cell-based
Conditions: for staining for cardiac specific troponin I / staining for myosin heavy chain: cultured MSCs, 21st day
Procedure: An incision was made in the hindlimb of each rat while the rat was under general anesthesia. An 18-gauge needle was punctured to the bone and used to aspirate bone marrow (1 ml) from the tibia. The marrow aspirate was transferred to sterile tubes, which contained 10 ml Iscove's modified Dulbecco medium (TMDM; Gibco Laboratories, Gaithersberg, Md.), containing antibiotics (penicillin G, 100 U/ml; streptomycin, 100 μg/ml) and 1000 IU heparin. The marrow cell suspension was dispersed into single cells using a 23-gauge needle. The tube was spun at 2000 rpm for 5 min to pellet the cells. After removing the supernatant and fat layer, the cell pellet was re-suspended with IMDM. To separate bone marrow cells and red blood cells, the density centrifugation method described by Yablonka-Reuveni and Nameroff (Histochemistry, 87:27-38, 1987) was used. First, the cell suspension was loaded onto 20% and 60% Percoll (Sigma Chemical Co., St. Louis, Mo.) layers, which were piled up in a tube, and the tube was centrifuged at 14000 rpm. for 10 minutes. […] The cells were centrifuged at 2,000 rpm for 10 minutes and then washed with phosphate-buffered saline (PBS) to remove the Percoll. This was repeated and then the cell pellet was resuspended in culture medium and used for in vitro and in vivo studies.
To identify the optimal conditions for inducing mesenchymal stem cell (MSC) differentiation by 5-azacytidine, the cells were cultured in IMDM containing 10% fetal bovine serum and antibiotics, with 5-azacytidine (5-aza: 0.1, 1, 5, 10, 20, and 100 μM; n=6 for each group), with insulin (1 nM; n=6), or with TGFβ1 (10 ng/ml; n=6). The cells were incubated with these agents for 24 hours and then washed with PBS. The medium was changed twice a week for 21 days. Almost all the hematopoietic stem cells were washed away with the medium changes.
To test the effect of cell passaging on cardiomyogenic differentiation of MSCs, samples of MSCs, prepared as described above, were passaged once prior to preparing the cell cultures described below. In this case, the term passaging refers to the distribution of cultured cells growing in a culture dish into new dishes after the cells reach confluence (i.e. when the cells contact each other and cover the surface of the dish).
One group of the MSCs, prepared as above, was, in turn, divided into two groups: A (control) and B, each group having 6 samples. Cells of the control group, A, were cultured for 7 days in IMDM containing 10% fetal bovine serum and antibiotics. The MSCs of group B were initially cultured for 2 days in the above medium after which 5-aza (10 μM) was added to the culture medium. After a 24 hour exposure to 5-aza, the compound was washed out of the culture and the cells were culturing in the medium described above for 4 days more.
Following the above culturing period, the cells from both groups were stained by immunocytofluorescence to detect the presence of cardiac-specific troponin I (a contractile apparatus-specific protein found only in cardiomyocytes) or muscle-specific myosin heavy chain. Briefly, the staining method entailed washing the cells with phosphate-buffer saline (PBS), followed by incubation in methanol at −20° C. for 20 minutes. The dishes were then washed with PBS three times. Monoclonal antibodies specific against cardiac troponin I (Spectral Diagnostic, Toronto) or against myosin heavy chain (Biogenesis, USA), were added to the cells and the dishes were incubated at 37° C. for 1 hour. To remove unbound antibody, the dishes were gently shaken at room temperature and washed three times with PBS. A rabbit antibody conjugated with FITC (fluorescein isothiocyanate) against mouse IgG was added to the dishes, after which incubation and rinsing with PBS were performed as described above for the first antibody. Observations were made and photos were taken. […]

[1] = cultured bone marrow MSCs, 5-aza added on third day, seen on 10th day of culture

number of MSCs in cultures (10 μM 5-aza added on first or second day compared with third day after isolation) | Compound | staining for cardiac specific troponin I | staining for myosin heavy chain | myotube formation [1] | myotube formation (5 μM 5-aza for 24 hours) | number of myotubes, visually determined (10 μM 5-aza compared with 5 μM 5-aza) | myotube formation (10 μM 5-aza for 24 hours) | necrotic cells (MSCs incubated with 5-aza at 20 μM) | necrotic cells (MSCs incubated with 5-aza at 100 μM) | differentiation into cardiomyocyte-like cells (myotube formation) (MSCs passaged once, then 5-aza 10 μM for 24 hours) | cell morphology (concentrations of 5-aza lower than 5 μM)
 | TGFβ1 | negative | negative | did not form myotubes |  |  |  |  |  |  | 
 | insulin | negative | negative | did not form myotubes |  |  |  |  |  |  | 
much smaller | Nc1ncn([C@@H]2O[C@H](CO)[C@@H](O)[C@H]2O)c(=O)n1 [5-aza, 5-azacytidine] | stained positively | stained positively | formed multinucleated myotubes | myotube formation was present | greater | myotube formation was present | more than 50% | more than 50% | did not differentiate into cardiomyocyte-like cells | morphologically similar to the control cells
